PMC9571608, “Detection of Bitterness in Vitamins Is Mediated by the Activation of Bitter Taste Receptors” (Nutrients, 2022)
Values joined by “and” are separate entries in the source; they are usually repeats but may differ in a detail not shown here. Identical values can stand only once. Counter-ions that a name gives are not always drawn. Like-named read-outs stand apart in the source and are kept apart here.

Experiments:
[1] = test system: human bitter taste detection (sensory panel); experiment: Human bitter taste detection threshold, three-alternative forced choice (3-AFC), BET method; type: in vivo; details: 32 panelists, group BET
Text: Based on bibliographic studies, preliminary works performed in the laboratory, and the results of taste receptor functional assays, the following vitamins were included in this study: vitamin B1 (thiamine hydrochloride), vitamin B2 (riboflavin phosphate), vitamin B3 (niacinamide), and vitamin B6 (pyridoxine hydrochloride). These vitamins are present in high quantities in nutritional supplements, safe for humans (except at very high concentrations), and can induce a strong bitter taste. These concentrations were determined according to the toxicity threshold of each compound tested and the maximum daily reference intake. These compounds were prepared in commercial mineral water (Evian®, Evian, France).
The threshold values for bitter taste detection were determined by 32 panelists (18–65 years old, 14 males and 18 females, without sensory perception disorders, food allergies, drug treatments, or heart, lung, or cardiac pathologies) who were recruited from Dijon (France) and the surrounding areas. An ethical committee approved this study (Personal Protection Committee of Rennes—Ouest V, protocol code 2018A01342-53), and all panelists signed an informed consent form. A sensory test called three-alternative forced choice (3-AFC) was used in accordance with the protocol detailed in NF ISO 13301. Before performing the measurement sessions, four training sessions were provided to familiarize the panelists with the bitter taste, test procedure, and signal acquisition software. In this discriminative test, six series consisting of three samples, which were each encoded using randomly generated three-digit numbers, were simultaneously delivered to the panelists. The six 3-AFC presentations contained two blank samples (commercial mineral water, manufacturer: Evian, France) and ascending concentrations of vitamin solution. Before the test, subjects were advised that each presentation consisted of two samples that contained only water and one sample that contained a taste. For each 3-AFC presentation, subjects were asked to take the samples sequentially from left to right. Then, they placed the entirety of each sample solution in their mouths and carefully gargled to ensure that the solution was dispersed throughout the mouth. A sip-and-spit procedure was used; subjects rinsed their mouths with commercial mineral water between each series of tests. Subjects were asked to indicate which of the samples contained the stimulus. If a subject perceived no difference between the three samples, he or she was asked to choose one (forced choice). The sensory tests were conducted in a room devoted to sensory evaluation. For the case of colored samples, black-colored glasses were used, and tastings were performed under red light. […] The aim of this sensory analysis was to determine the bitter taste detection threshold for these vitamins and not an olfactory detection threshold. Therefore, the measurements were conducted using pinched nose clips. The subjects waited one minute between each series and had to thoroughly rinse their mouths. Four repetitions were performed per subject for each vitamin to obtain statistically interpretable results, which represented a total of 288 samples. During the sensory analysis session, a bitterness detection threshold of only two vitamins was used (36 samples) to avoid the ingestion of a high vitamin quantity, which is potentially harmful. The answers from the panelists were collected using software dedicated to sensory analysis (FIZZ acquisition V.2.51 software).
The best estimate threshold (BET) method was used to determine the bitter detection threshold for four vitamins. The individual best-estimated detection threshold (BET) was proposed in ASTM E679-04. ASTM E679-04 is a standard practice for the determination of odor and taste thresholds via a forced-choice ascending concentration series method of limits. […]

TAS2R10 = target: T1, TAS2R10 (Homo sapiens, UniProt Q9NYW0); experiment: Calcium mobilization assay, cells transiently expressing TAS2R10; type: cell-based; as to TAS2R Receptor 10 response: key: +: positive responses (lines with background color)
T1 construct: expressed in transfected cells; host or cells: HEK293T cells stably expressing Gα16gust44
T1 sequence (Q9NYW0 1-307): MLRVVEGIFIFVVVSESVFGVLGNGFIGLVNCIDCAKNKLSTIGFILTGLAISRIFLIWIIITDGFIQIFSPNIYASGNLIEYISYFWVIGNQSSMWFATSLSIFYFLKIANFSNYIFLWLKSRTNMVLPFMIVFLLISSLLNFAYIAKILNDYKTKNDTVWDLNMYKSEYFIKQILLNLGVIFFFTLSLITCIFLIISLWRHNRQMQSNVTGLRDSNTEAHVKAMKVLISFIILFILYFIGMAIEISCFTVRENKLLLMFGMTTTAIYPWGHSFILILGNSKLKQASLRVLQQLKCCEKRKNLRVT
Protocol: (§1) A functional expression study was carried out as described previously. TAS2R expression vectors (pcDNA5FRT-SST3-TAS2R-HSV and pEAK-10-SST3-TAS2RHSV) were kindly provided by Wolfgang Meyerhof (German Institute of Human Nutrition Postdam-Rehbruecke, Nuthetal, Germany). For all constructs, the N-terminus contained the first 45 amino acids of rat somatostatin 3 (SST3) to improve membrane targeting. A sequence coding for a herpes simplex virus glycoprotein D epitope (HSV-tag) was added at the C-terminus to allow immunocytochemical detection of the receptor [13, 14, 23, 24]. HEK293T cells stably expressing the chimeric G protein α subunit Gα16gust44 [25, 26] were seeded into poly-D-lysine-coated 96-well black plates (0.35 × 10^5 cells/well) in high-glucose DMEM supplemented with 2 mM GlutaMAX, 10% dialysed fetal bovine serum penicillin/streptomycin, and G418 (400 µg/mL), and then placed under a humidified and controlled atmosphere (37 °C and 6.3% CO2) overnight. […]
Approximately one hour after loading, the plate was rinsed twice with 100 µL of C1 buffer. The calcium signal was recorded for 90 s after injection of a range of compounds using a Flexstation 3 fluorometric imaging plate reader (Molecular Devices) at a wavelength of 510 nm after excitation at 488 nm. All substance concentrations were measured in triplicate in at least three independent experiments. […]
(§2) To obtain a dose–response curve, the ratio between the maximum variation in fluorescence after ligand addition and the initial fluorescence before addition (ΔF/F0) was calculated for each well. The fluorescence signals collected for each replicate were averaged for the same substance concentration, and the fluorescence changes in the corresponding mock-transfected cells were subtracted. […] The dose–response data were fitted, and EC50 values were calculated using a four-parameter logistic equation using SigmaPlot software (Systat Software, San Jose, CA, USA). […]

human taste perception = test system: human taste perception; set-up: method as in doi:10.3758/BF03203878; details: concentration omitted in the cited paper; cited from earlier work
TAS2R39 [2] = target: T2, TAS2R39 (Homo sapiens, UniProt P59534); details: cited from earlier work
T2 sequence (P59534 whole entry): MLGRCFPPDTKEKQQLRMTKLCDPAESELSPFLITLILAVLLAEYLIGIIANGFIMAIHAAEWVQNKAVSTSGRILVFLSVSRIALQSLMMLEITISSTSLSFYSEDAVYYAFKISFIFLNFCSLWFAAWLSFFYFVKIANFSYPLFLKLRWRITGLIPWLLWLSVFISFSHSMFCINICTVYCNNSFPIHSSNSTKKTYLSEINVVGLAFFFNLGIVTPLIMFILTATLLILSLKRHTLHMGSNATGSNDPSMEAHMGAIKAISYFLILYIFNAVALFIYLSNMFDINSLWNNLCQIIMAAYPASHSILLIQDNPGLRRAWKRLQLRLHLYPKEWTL

TAS2R1 [3] = target: T3, TAS2R1 (Homo sapiens, UniProt Q9NYW7); details: cited from earlier work
T3 sequence (Q9NYW7 whole entry): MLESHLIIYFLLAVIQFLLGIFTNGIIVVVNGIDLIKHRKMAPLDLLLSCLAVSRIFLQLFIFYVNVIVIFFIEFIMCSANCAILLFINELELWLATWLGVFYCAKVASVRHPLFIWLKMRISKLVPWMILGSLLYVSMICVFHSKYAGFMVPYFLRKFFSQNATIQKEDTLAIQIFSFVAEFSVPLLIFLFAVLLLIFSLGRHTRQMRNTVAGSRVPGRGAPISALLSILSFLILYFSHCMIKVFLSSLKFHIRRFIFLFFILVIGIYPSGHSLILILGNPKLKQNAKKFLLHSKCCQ

TAS2R39 [4] = target: T2, TAS2R39; details: vitamin B1 as thiamine hydrochloride, up to M.A.C 1 mM
Protocol: as §1
(§3) Approximately 24–26 h after transfection, cells were loaded for 1 h at 37 °C with Fluo4-AM (2 µM, Molecular Probes), which had been previously mixed with pluronic acid F-127 (0.01%) in C1 buffer (130 mM NaCl, 5 mM KCl, 10 mM HEPES, 2 mM CaCl2, 10 mM pyruvic acid, pH 7.4, 300 mOsm) containing 2.5 mM probenecid (Life Technologies). […] The calcium signal was recorded for 90 s after injection of a range of compounds using a Flexstation 3 fluorometric imaging plate reader (Molecular Devices) at a wavelength of 510 nm after excitation at 488 nm. All substance concentrations were measured in triplicate in at least three independent experiments. […]
(§4) To obtain a dose–response curve, the ratio between the maximum variation in fluorescence after ligand addition and the initial fluorescence before addition (ΔF/F0) was calculated for each well. The fluorescence signals collected for each replicate were averaged for the same substance concentration, and the fluorescence changes in the corresponding mock-transfected cells were subtracted. […]

TAS2R1 [5] = target: T3, TAS2R1
Protocol: as §1, §3, §4

TAS2R7 [6] = target: T4, TAS2R7 (Homo sapiens, UniProt Q9NYW3); experiment: Calcium mobilization assay, cells transiently expressing TAS2R7; type: cell-based; set-up: expressed in transfected cells; host or cells: HEK293T cells stably expressing Gα16gust44; details: vitamin B1 as thiamine hydrochloride, up to M.A.C 1 mM
T4 sequence (Q9NYW3 1-318): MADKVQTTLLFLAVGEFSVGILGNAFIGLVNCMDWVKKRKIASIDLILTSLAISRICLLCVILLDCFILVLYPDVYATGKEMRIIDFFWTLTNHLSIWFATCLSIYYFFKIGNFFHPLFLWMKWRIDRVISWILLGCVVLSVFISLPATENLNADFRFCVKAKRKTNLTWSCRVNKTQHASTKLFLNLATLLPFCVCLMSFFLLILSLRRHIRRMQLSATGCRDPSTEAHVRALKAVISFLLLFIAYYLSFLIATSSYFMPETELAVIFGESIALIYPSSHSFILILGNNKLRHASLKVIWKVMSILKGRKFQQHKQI
Protocol: A functional expression study was carried out as described previously. TAS2R expression vectors (pcDNA5FRT-SST3-TAS2R-HSV and pEAK-10-SST3-TAS2RHSV) were kindly provided by Wolfgang Meyerhof (German Institute of Human Nutrition Postdam-Rehbruecke, Nuthetal, Germany). For all constructs, the N-terminus contained the first 45 amino acids of rat somatostatin 3 (SST3) to improve membrane targeting. A sequence coding for a herpes simplex virus glycoprotein D epitope (HSV-tag) was added at the C-terminus to allow immunocytochemical detection of the receptor [13, 14, 23, 24]. HEK293T cells stably expressing the chimeric G protein α subunit Gα16gust44 [25, 26] were seeded into poly-D-lysine-coated 96-well black plates (0.35 × 10^5 cells/well) in high-glucose DMEM supplemented with 2 mM GlutaMAX, 10% dialysed fetal bovine serum penicillin/streptomycin, and G418 (400 µg/mL), and then placed under a humidified and controlled atmosphere (37 °C and 6.3% CO2) overnight. After 24–26 h of incubation, cells were transiently transfected with TAS2R expression plasmids (120 ng/well) using Lipofectamine 2000 reagent (0.4 µL/well) (Thermo Fisher Scientific, Illkirch-Graffenstaden, France).
Approximately 24–26 h after transfection, cells were loaded for 1 h at 37 °C with Fluo4-AM (2 µM, Molecular Probes), which had been previously mixed with pluronic acid F-127 (0.01%) in C1 buffer (130 mM NaCl, 5 mM KCl, 10 mM HEPES, 2 mM CaCl2, 10 mM pyruvic acid, pH 7.4, 300 mOsm) containing 2.5 mM probenecid (Life Technologies). Approximately one hour after loading, the plate was rinsed twice with 100 µL of C1 buffer. The calcium signal was recorded for 90 s after injection of a range of compounds using a Flexstation 3 fluorometric imaging plate reader (Molecular Devices) at a wavelength of 510 nm after excitation at 488 nm. All substance concentrations were measured in triplicate in at least three independent experiments. As cell transfection and substances can interfere with cellular viability and calcium assays, all compounds were tested on mock-transfected cells (cells transfected with empty vectors) on the same plates for all substance concentrations used.
as §2

TAS2R7 [7] = target: T4, TAS2R7; details: cited from earlier work
25 human TAS2Rs = experiment: Taste receptor functional assay, panel of 25 human TAS2Rs; type: cell-based; details: lowest concentration that could elicit TAS2R activation
Protocol: A functional expression study was carried out as described previously. TAS2R expression vectors (pcDNA5FRT-SST3-TAS2R-HSV and pEAK-10-SST3-TAS2RHSV) were kindly provided by Wolfgang Meyerhof (German Institute of Human Nutrition Postdam-Rehbruecke, Nuthetal, Germany). For all constructs, the N-terminus contained the first 45 amino acids of rat somatostatin 3 (SST3) to improve membrane targeting. A sequence coding for a herpes simplex virus glycoprotein D epitope (HSV-tag) was added at the C-terminus to allow immunocytochemical detection of the receptor [13, 14, 23, 24]. […]
as §3

[8] = HEK293T-Gα16gust44 cells, calcium signal, up to M.A.C

TAS2R39 activation (TAS2R39 [4])	TAS2R1 activation (TAS2R1 [5]; 0.1 mM)	TAS2R Receptor 1 response (TAS2R1 [5]; [8])	TAS2R7 activation (TAS2R7 [6])	Structure (SMILES)	Human Bitter Taste Detection Threshold ([1]; Figure 3, aqueous solution) [mM]	Human Bitter Taste Detection Threshold ([1]; aqueous solution (mineral water), nose clips) [mM]	TAS2R10 activation (TAS2R10; 1 mM)	TAS2R Receptor 10 response (TAS2R10; [8])	EC50 (TAS2R10; read-out: EC50 (half-maximal TAS2R10 activation), TAS2R10-expressing HEK293T cells, Fluo-4 calcium response) [µM]	Taste described by sensory analysis (human taste perception)	TAS2R39 activation (TAS2R39 [2])	TAS2R1 activation (TAS2R1 [3])	Human Bitter Taste Detection Threshold ([1]; aqueous solution (mineral water), nose clips, listed as B1) [mM]	Human Bitter Taste Detection Threshold ([1]; aqueous solution (mineral water), nose clips, listed as vitamin B1) [mM]	TAS2R7 activation (TAS2R7 [7])	Cellular Bitter Taste Detection Threshold (25 human TAS2Rs)
				Cc1cc2nc3c(=O)[nH]c(=O)nc-3n(C[C@H](O)[C@H](O)[C@H](O)COP(=O)(O)O)c2cc1C [Vitamin B2, riboflavin phosphate]	0.65	0.65										
				C=C1CC[C@H](O)C/C1=C/C=C1\CCC[C@]2(C)[C@@H]([C@H](C)CCCC(C)C)CC[C@@H]12 [Vitamin D, cholecalciferol]			strongly activate	+	250 ± 200	tasteless						
unable to demonstrate the activation	activation	+	unable to demonstrate the activation	Cc1ncc(C[n+]2csc(CCO)c2C)c(N)n1 [Vitamin B1, thiamine hydrochloride]	1.1						activation	activation	1.10	1.1	activation	0.1 mM and 0.10 mM
